Results published in patent US20130259835A1, “BIFIDOBACTERIUM ADOLESCENTIS SPM0212 HAVING ANTIVIRAL ACTIVITY FOR HEPATITIS B VIRUS, AND PHARMACEUTICAL COMPOSITION FOR PREVENTING AND TREATING HEPATITIS B COMPRISING THEREOF” (SAHMYOOK UNIVERSITY INDUSTRY-ACADEMIC COOPERATION, priority 2011, published 2013).

Legend:
[1] = tested on: hepatitis B virus; settings: administered 3 times a week for at least 3 months; average; cited from earlier work
[2] = tested on: Bifidobacterium adolescentis KCTC3352; experiment: Antibiotics sensitivity, agar dilution MIC; format: cell-based; settings: strain KCTC3352; Table 5
Protocol: (§1) Antibiotics sensitivity test was performed for comparative analysis of phenotypes of the lactobacillus strain separated in Example 1 and standard strains purchased from KCTC. In order to find out the minimum inhibitory concentrations (MICs) of 18 kinds of antibiotics (ampicillin, mupirocin, amoxicillin/clavulanic acid, oxacillin, cefonicid, cefazolin, ceftazidime, cefotaxime, ceftriaxone, tigecyclin, streptomycin, vancomycin, teicoplanin, daptomycin, linezolid, clindamycin, quinupristin/dalfopristin and tobramycin), agar dilution method was performed according to the Clinical and Laboratory Standards Institute (CLSI, 2003), and the results were listed in Tables 4 and 5.

[3] = tested on: Bifidobacterium adolescentis SPM0212; experiment: Antibiotics sensitivity, agar dilution MIC; format: cell-based; settings: strain SPM0212; Table 5
Protocol: as §1

[4] = tested on: Bifidobacterium adolescentis SPM0214; experiment: Antibiotics sensitivity, agar dilution MIC; format: cell-based; settings: strain SPM0214; Table 5
Protocol: as §1

[5] = tested on: Bifidobacterium adolescentis SPM0308; experiment: Antibiotics sensitivity, agar dilution MIC; format: cell-based; settings: strain SPM0308; Table 5
Protocol: as §1

[6] = tested on: Bifidobacterium adolescentis SPM1005; experiment: Antibiotics sensitivity, agar dilution MIC; format: cell-based; settings: strain SPM1005; Table 5
Protocol: as §1

[7] = tested on: Bifidobacterium adolescentis SPM1307-A; experiment: Antibiotics sensitivity, agar dilution MIC; format: cell-based; settings: strain SPM1307-A; Table 5
Protocol: as §1

[8] = tested on: Bifidobacterium adolescentis SPM1601; experiment: Antibiotics sensitivity, agar dilution MIC; format: cell-based; settings: strain SPM1601; Table 5
Protocol: as §1

[9] = tested on: Bifidobacterium adolescentis SPM1604; experiment: Antibiotics sensitivity, agar dilution MIC; format: cell-based; settings: strain SPM1604; Table 5
Protocol: as §1

[10] = tested on: Bifidobacterium adolescentis SPM1605; experiment: Antibiotics sensitivity, agar dilution MIC; format: cell-based; settings: strain SPM1605; Table 5
Protocol: as §1

[11] = tested on: Bifidobacterium adolescentis SPM1606; experiment: Antibiotics sensitivity, agar dilution MIC; format: cell-based; settings: strain SPM1606; Table 5
Protocol: as §1

[12] = tested on: Bifidobacterium adolescentis SPM1608; experiment: Antibiotics sensitivity, agar dilution MIC; format: cell-based; settings: strain SPM1608; Table 5
Protocol: as §1

[13] = tested on: Bifidobacterium longum KCTC3128; experiment: Antibiotics sensitivity, agar dilution MIC; format: cell-based; settings: strain KCTC3128; Table 5
Protocol: as §1

[14] = tested on: Bifidobacterium longum SPM1205; experiment: Antibiotics sensitivity, agar dilution MIC; format: cell-based; settings: strain SPM1205; Table 5
Protocol: as §1

[15] = tested on: Bifidobacterium longum SPM1206; experiment: Antibiotics sensitivity, agar dilution MIC; format: cell-based; settings: strain SPM1206; Table 5
Protocol: as §1

[16] = tested on: Bifidobacterium longum SPM1207; experiment: Antibiotics sensitivity, agar dilution MIC; format: cell-based; settings: strain SPM1207; Table 5
Protocol: as §1

[17] = tested on: Bifidobacterium pseudocatenulatum KCTC3223; experiment: Antibiotics sensitivity, agar dilution MIC; format: cell-based; settings: strain KCTC3223; Table 5
Protocol: as §1

[18] = tested on: Bifidobacterium pseudocatenulatum SPM1204; experiment: Antibiotics sensitivity, agar dilution MIC; format: cell-based; settings: strain SPM1204; Table 5
Protocol: as §1

[19] = tested on: Bifidobacterium pseudocatenulatum SPM1309; experiment: Antibiotics sensitivity, agar dilution MIC; format: cell-based; settings: strain SPM1309; Table 5
Protocol: as §1

Compound | patients with treatment effect of inhibiting the virus replication [1] | Minimum inhibitory concentrations (MICs) [2] | Minimum inhibitory concentrations (MICs) [3] | Minimum inhibitory concentrations (MICs) [4] | Minimum inhibitory concentrations (MICs) [5] | Minimum inhibitory concentrations (MICs) [6] | Minimum inhibitory concentrations (MICs) [7] | Minimum inhibitory concentrations (MICs) [8] | Minimum inhibitory concentrations (MICs) [9] | Minimum inhibitory concentrations (MICs) [10] | Minimum inhibitory concentrations (MICs) [11] | Minimum inhibitory concentrations (MICs) [12] | Minimum inhibitory concentrations (MICs) [13] | Minimum inhibitory concentrations (MICs) [14] | Minimum inhibitory concentrations (MICs) [15] | Minimum inhibitory concentrations (MICs) [16] | Minimum inhibitory concentrations (MICs) [17] | Minimum inhibitory concentrations (MICs) [18] | Minimum inhibitory concentrations (MICs) [19]
interferon-α | 20% | – | – | – | – | – | – | – | – | – | – | – | – | – | – | – | – | – | –
teicoplanin [TEC] | – | 2 μl/Ml | 2 μl/Ml | 2 μl/Ml | 2 μl/Ml | 1 μl/Ml | 0.5 μl/Ml | 2 μl/Ml | ≦0.06 μl/Ml | 1 μl/Ml | ≦0.06 μl/Ml | 2 μl/Ml | 2 μl/Ml | 0.5 μl/Ml | 1 μl/Ml | 1 | 2 μl/Ml | 2 μl/Ml | 0.25 μl/Ml
CCCCCCCCCC(=O)N[C@@H](Cc1c[nH]c2ccccc12)C(=O)N[C@H](CC(N)=O)C(=O)N[C@@H](CC(=O)O)C(=O)N[C@@H]1C(=O)NCC(=O)N[C@@H](CCCN)C(=O)N[C@@H](CC(=O)O)C(=O)N[C@H](C)C(=O)N[C@@H](CC(=O)O)C(=O)NCC(=O)N[C@H](CO)C(=O)N[C@@H]([C@H](C)CC(=O)O)C(=O)N[C@@H](CC(=O)c2ccccc2N)C(=O)O[C@@H]1C [DAP, daptomycin] | – | 16 μl/Ml | 4 μl/Ml | 2 μl/Ml | 0.25 μl/Ml | 1 μl/Ml | 8 μl/Ml | 4 μl/Ml | 4 μl/Ml | 4 μl/Ml | 0.12 μl/Ml | 8 μl/Ml | 16 μl/Ml | 2 μl/Ml | 4 μl/Ml | – | 16 μl/Ml | 2 μl/Ml | 4 μl/Ml
CCC[C@@H]1C[C@@H](C(=O)N[C@@H]([C@H]2O[C@H](SC)[C@H](O)[C@@H](O)[C@H]2O)[C@H](C)Cl)N(C)C1 [CLI, clindamycin] | – | 4 μl/Ml | 4 μl/Ml | 32 μl/Ml | 32 μl/Ml | 32 μl/Ml | 4 μl/Ml | 16 μl/Ml | 4 μl/Ml | 4 μl/Ml | 4 μl/Ml | 8 μl/Ml | 4 μl/Ml | 4 μl/Ml | 8 μl/Ml | – | 8 μl/Ml | >128 μl/Ml | 8 μl/Ml
CN[C@H](CC(C)C)C(=O)N[C@H]1C(=O)N[C@@H](CC(N)=O)C(=O)N[C@H]2C(=O)N[C@H]3C(=O)N[C@H](C(=O)N[C@H](C(=O)O)c4cc(O)cc(O)c4-c4cc3ccc4O)[C@H](O)c3ccc(c(Cl)c3)Oc3cc2cc(c3O[C@@H]2O[C@H](CO)[C@@H](O)[C@H](O)[C@H]2O[C@H]2C[C@](C)(N)[C@H](O)[C@H](C)O2)Oc2ccc(cc2Cl)[C@H]1O [VAN, vancomycin] | – | 2 μl/Ml | 2 μl/Ml | 2 μl/Ml | 2 μl/Ml | 2 μl/Ml | 2 μl/Ml | 2 μl/Ml | ≦0.06 μl/Ml | 2 μl/Ml | ≦0.06 μl/Ml | 2 μl/Ml | 4 μl/Ml | 2 μl/Ml | 2 μl/Ml | 2 μl/Ml | 4 μl/Ml | 2 μl/Ml | 2 μl/Ml
CC(=O)NC[C@H]1CN(c2ccc(N3CCOCC3)c(F)c2)C(=O)O1 [LNZ, linezolid] | – | 8 μl/Ml | 8 μl/Ml | 0.25 μl/Ml | 2 μl/Ml | 4 μl/Ml | 8 μl/Ml | 8 μl/Ml | 1 μl/Ml | 4 μl/Ml | 2 μl/Ml | 8 μl/Ml | 8 μl/Ml | 2 μl/Ml | 1 μl/Ml | – | 8 μl/Ml | 8 μl/Ml | 2 μl/Ml
